The subject of assay [1] is C3H10T1/2 cells. The experiment in a line: Alkaline phosphatase (ALP) enzymatic assay in C3H10T1/2 cells. It counts as cell-based, mouse. As for the experimental part:
Alkaline Phosphatase Assay: C3H10T1/2 cells were expanded in T175 flasks; cells at the 13th passage were detached by trypsin/EDTA and diluted in the growth media. The resulting cell suspension was then plated into black clear bottom 384-well plates (Greiner) with 2500 cells/well in 100 μL growth media using a Multi-dropTM liquid delivery system (Titertek Instruments). After an overnight incubation, cells were attached to the bottom of the wells. A stock solution of Compound A in DMSO (500 nL) was delivered into corresponding well using a Mini TrakTM multiposition dispenser system (Packard BioScience) to make the final concentration of 5 μM of each compound. Cells were then incubated at 37° C. in 5% CO2. After 4 days, the media was removed and 10 μL of Passive Lysis Buffer (Promega) was added into each well. After 5 min, 10 μL of alkaline phosphatase substrate solution (1 mM in pH 10 buffer, 2'-[2'-benzothiazoyl]-6'-hydroxybenzothiazole phosphate (Promega) was added to each well. After a 15 minute incubation at room temperature, the plates were read on an Acquest high-throughput plate reader (Molecular Devices) using the manufacturer's protocol. C3H10T1/2 cells were treated with DMSO (control), BMP-4(300 ng/mL), BMP-4 (100 ng/mL) and Compound A (1 μM), or 0.5 μ[…], or 10 μM Compound A. Alkaline phosphatase (ALP) activity was measured as described in Example 2 above, after two, four, and six days of treatment.

The subject of assay [2] is Cbfa1/Runx2 gene promoter. The experiment in a line: Cbfa1/Runx2 reporter gene assay, transiently transfected C3H10T1/2 cells. It counts as cell-based, mouse. From the text:
(§1) Cbfa1/Runx2 Reporter Gene Assay: The murine Cbfa1/Runx2 gene promoter region (1818 bp) was amplified by PCR from mouse genomic DNA library (Clontech) using the following primers: The resulting PCR product was inserted into Topo cloning vector (Invitrogen), amplified and sequenced. The resulting plasmid was digested with restriction enzymes Mlu and XhoI (New England Biolab) and the 1.8 kb fragment was inserted into the Mlu/XhoI cloning sites in pGL3-BV luciferase reporter vector (Promega). For transient transfection assays, cells were seeded in a 6-well plate at a density of 30,000 cells/well in 2 mL of growth medium. After an overnight incubation, the cells reached 80% confluency. Plasmid DNA (1 μg) was transfected into cells using 3 μL of Fugene 6 transfection reagent (Roche) using the manufacturer's protocol. After 8 hours, the transfected cells were plated into 96-well assay plates (Corning) and treated with 300 ng/mL of recombinant human bone morphogenetic protein 4 (BMP-4) (Sigma), 1% DMSO (Sigma) or different concentrations of Compound A (dissolved in DMSO). The cells were incubated for 4 days, then the luciferase activity in the cells was assayed using the Bright-Glo luciferase assay kit (Promega) using the manufacturer's protocol. Luminescence signals were detected by Acquest AD (Molecular Devices) plate reader. […]

The test system of assay [3] is Cbfa1/Runx2 gene promoter. The experiment in a line: Cbfa1/Runx2 reporter gene assay, stably transfected MC3T3-E1 cells. It counts as cell-based, mouse.
Source text: as §1, with “For transient transfection assays, cells were seeded in a 6-well plate at a density of 30,000 cells/well in 2 mL of growth medium.” left out, “reader. Due to the low transfection efficiency of MC3T3-E1 cells, the Cbfa1/Runx2 reporter assay was carried out with stably transfected MC3T3-E1 cells.” for “reader.”

For assay [4], the system named is C3H10T1/2 cells. The assay can be described thus: Histochemical staining for endogenous alkaline phosphatase expression in C3H10T1/2 cells. As to conditions: 4 days; for cells stained positive for ALP: Compound A 2 μM, BMP-4 300 ng/mL. It counts as cell-based, mouse. As to the method: Histochemical Staining for Endogenous Alkaline Phosphatase Expression: C3H10T1/2 cells were seeded in 96-well assay plates (Corning) at a density of 10,000 cells/well, and treated with 300 ng/mL of BMP-4, 1% DMSO, 2 μM of Compound A, or 100 ng/mL of BMP and 1 μM of Compound A for 4 days. The cells were then washed 3 times with 200 μL PBS and fixed by a 15 minute incubation in a 10% formalin solution (Sigma). The fixed cells were washed again with 3 times with 200 μL PBS and stained with the Alkaline Phosphatase Staining Kit 86R (Sigma Diagnostics) using the manufacturer's protocol. The images were taken on a Nikon Eclipse TE300 microscope, and ALP positive cells were counted manually from the images.
C3H10T1/2 cells were treated with DMSO (a), 300 ng/mL of BMP-4 (b), 2 μM of Compound A (c), and 100 ng/mL of BMP and 1 μM of Compound A (d) for 4 days and stained for ALP activity. ALP positive cells were stained red and the cell nuclei were stained blue.

The subject of the next assay is 3T3-L1 cells. The experiment in a line: Alkaline phosphatase (ALP) activity in 3T3-L1 pre-adipocyte cells. It counts as cell-based, mouse. As for the experimental part: Alkaline Phosphatase Assay: C3H10T1/2 cells were expanded in T175 flasks; cells at the 13th passage were detached by trypsin/EDTA and diluted in the growth media. The resulting cell suspension was then plated into black clear bottom 384-well plates (Greiner) with 2500 cells/well in 100 μL growth media using a Multi-drop™ liquid delivery system (Titertek Instruments). After an overnight incubation, cells were attached to the bottom of the wells. A stock solution of Compound A in DMSO (500 nL) was delivered into corresponding well using a Mini Trak™ multiposition dispenser system (Packard BioScience) to make the final concentration of 5 μM of each compound. Cells were then incubated at 37° C. in 5% CO2. […] After 5 min, 10 μL of alkaline phosphatase substrate solution (1 mM in pH 10 buffer, 2′-[2′-benzothiazoyl]-6′-hydroxybenzothiazole phosphate (Promega) was added to each well. After a 15 minute incubation at room temperature, the plates were read on an Acquest high-throughput plate reader (Molecular Devices) using the manufacturer's protocol.
(§2) 3T3-L1 cells, C2C12 cells, and MC-3T3E1 cells were treated with DMSO (control), BMP-4(300 ng/mL), BMP-4 (100 ng/mL) and Compound A (1 μM), or 0.1 μM, 0.5 μM, 1 μM, 5 μM, or 10 μM Compound A. ALP activity was measured as described in Example 1 above, after four days of treatment.

Assay [5] has as its system Cbfa1/Runx2 gene promoter. The experiment in a line: Cbfa1/Runx2 reporter gene assay in 3T3-L1 cells. It counts as cell-based, mouse. As to conditions: 3T3-L1 pre-adipocyte cells.
Source text: as §1
A general note: In a reporter assay the amount or activity of a reporter protein is the signal.

Assay [6] has as its system Cbfa1/Runx2 gene promoter. The experiment in a line: Cbfa1/Runx2 reporter gene assay in C2C12 cells. It counts as cell-based, mouse.
Source text: as §1

The test system of assay [7] is C3H10T1/2 cells. The assay can be described thus: Morphology of C3H10T1/2 cells under light microscopy. It counts as cell-based, mouse. The settings on record: 2 μM for 4 days. As for the experimental part:
C3H10T1/2 cells were treated with DMSO (1%) and Compound A (purmorphamine) (2 μM) for 4 days. C2C12 cells were treated with DMSO (1%), Compound A (purmorphamine) (2 μM) or BMP-4 (300 ng/mL) for 4 days. The morphology of the cells was examined under light microscopy.

The subject of assay [8] is alkaline phosphatase, collagen type I and osteoponin. The experiment in a line: Morphological and transcriptional analysis of osteogenesis (FIG. 5). It counts as cell-based.
The next assay concerns MC3T3-E1 cells. The assay can be described thus: Terminal differentiation of MC3T3-E1 pre-osteoblast cells. It counts as cell-based, mouse.
Source text: Mouse MC3T3-E1 cells are progenitor cells committed to an osteoblast lineage. […] Since MC3T3-E1 cells already have high levels of endogenous Cbfa1/Runx2, slight up-regulation of this gene may be sufficient to promote terminal differentiation (see, e.g., Xiao et al., J. Cell. Biochem. 74:596 (1999) and Wang et al., J. Bone. Miner. Res. 14:893 (1999)). The change of Cbfa1/Runx2 reporter activity in stably transfected MC3T3-E1 cells is not dramatic when treated with Compound A.
as §2

Turning to `c1ccc2c(Oc3nc(Nc4ccc(N5CCOCC5)cc4)c4ncn(C5CCCCC5)c4n3)cccc2c1` [Compound A, 2-(1-Naphthoxy)-6-(4-morpholinoanilino)-9-cyclohexylpurine], the “effectiveness in inducing the expression of ALP compared with BMP-4” value in the assay on C3H10T1/2 cells [1] (C3H10T1/2 cells, FIG. 1) is recorded as “more effective than BMP-4”. Moreover, in the assay on C3H10T1/2 cells [1] (Mus musculus, C3H 10T1/2, ALP enzymatic assay, C3H10T1/2 cells), the midpoint of the response, the EC50, lay at 1000 nM. In addition, the “increase in ALP” value in the assay with C3H10T1/2 cells [1] (after treatment for 4 days, compared with 1% DMSO treatment) was more than 50 fold. Moreover, the Cbfa1 gene upregulation entry in assay [2] (C3H10T1/2 cells, FIG. 4B) was “induces Cbfa1 gene upregulation”. Moreover, in assay [2] (treatment for 4 days, transient transfection), the “increase in Cbfa1/Runx2 reporter activity” value is recorded as “more than 6 fold”. In assay [3], the “change of Cbfa1/Runx2 reporter activity” value was “not dramatic”. In addition, the “cells stained positive for ALP” value in the assay on C3H10T1/2 cells [4] is recorded as “more than 80%”. The “increase in ALP level” value in the assay on 3T3-L1 cells (optimal concentration of 5 μM) worked out at 9 fold. Further, the Cbfa1/Runx2 expression entry in assay [5] is on record as “induces Cbfa1/Runx2 expression”. For the same molecule, the Cbfa1/Runx2 gene expression result in assay [6] is reported as “can be induced by Compound A to express the Cbfa1/Runx2 gene”. Further, the “morphology of the cells” value with C3H10T1/2 cells [7] was “changed from fibroblast (long and spindle-shaped) to osteocyte (small and round)”. The “expression of alkaline phosphatase, collagen type I and osteoponin” value in assay [8] (FIG. 5A) is listed as “induces expression”. For the same molecule, the DNA microarray analysis result in assay [8] (FIG. 5B) is “induces expression of a number of transcription factors and proteins”. Also, the “terminal differentiation of MC3T3-E1 cells” value in the assay on MC3T3-E1 cells was “promote the terminal differentiation”.

B1: BMP-4: recombinant human bone morphogenetic protein 4 (BMP-4) (Sigma) (protein, UniProt P12644 293-408, looked up)
Bone morphogenetic protein 4: SPKHHSQRARKKNKNCRRHSLYVDFSDVGWNDWIVAPPGYQAFYCHGDCPFPLADHLNSTNHAIVQTLVNSVNSSIPKACCVPTELSAISMLYLDEYDKVVLKNYQEMVVEGCGCR
On to B1, for which, in the assay on C3H10T1/2 cells [4], the “cells stained positive for ALP” value is given as 40%. Also, in the assay with C3H10T1/2 cells [4] (histochemical staining), the “ALP expression level of induced cells compared to cells treated with Compound A” value is “higher expression level of ALP”. The “induction of ALP expression” value in the assay on 3T3-L1 cells (BMP-4 alone) is “more than 40 fold”. Further, the “terminal differentiation of MC3T3-E1 cells” value in the assay on MC3T3-E1 cells is reported as “promote the terminal differentiation”.

What is called EC50 is the concentration at which the effect is half-maximal. A high value points to a need for much substance.
